Entries after “also recorded” stand apart in the source; their conditions may differ.
Biological target: CXCR4 (Homo sapiens, UniProt P61073)
Test: Calcium imaging ((Ca)i mobilization) assay, fura-2, C8161 melanoma cells
Assay type: cell-based
Set-up: human melanoma cell line C8161 was initially used, which expresses numerous human CXCR4 receptors; endogenous in cells; host or cells: C8161 human melanoma cells
Conditions: for Pharmacology: Table 2, agonist or antagonist; for IC50 / effect on SDF-1-induced (Ca)i response / compound's (Ca)i response in presence of CXCR4 antagonist AMD3100 / own (Ca)i response (agonist effect): C8161 cells; for IC50: multiple concentrations, dose-response, read-out: estimated IC50 (antagonism of SDF-1 (Ca)i response); for effect on SDF-1-induced (Ca)i response: test compounds 10 μM; for Ca^2+ Assay: Table 1, calcium imaging behavior; for compound's (Ca)i response in presence of CXCR4 antagonist AMD3100: AMD3100 1 μM where stated; for own (Ca)i response (agonist effect): compounds 10 μM where stated, SDF-1 100 nM
Description: The initial assay for examining the activity of different molecules was based on the fact that activation of CXCR4 receptors produces an increase in the intracellular free Ca^2+ concentration (Ca)i. This signal can easily be observed using a fluorescent Ca^2+ sensing dye such as fura-2. The quantitative nature of this assay makes it ideal for screening purposes. Moreover, the assay can also distinguish potential antagonists from potential agonists. The aggressive human melanoma cell line C8161 was initially used, which expresses numerous human CXCR4 receptors and produces strong (Ca)I signals when stimulated with SDF-1 (FIG. 3). In the assay, cells were usually stimulated twice with SDF-1. […] To test a drug, the compound in question was usually added prior to the second stimulation with SDF-1. At this point it was possible to observe whether the compound itself acted as an agonist by giving its own response or if it reduced the magnitude of the second response to SDF-1. […] Each of the four antagonists were then assayed at multiple concentrations to obtain a dose-response relationship and an estimated IC50. Antagonists NUCC-388, 397, 392, and 51420 had IC50 values of 0.3 μM, 3 μM, 1 μM, and 1 μM respectively.

Sequence of CXCR4 (P61073 whole entry): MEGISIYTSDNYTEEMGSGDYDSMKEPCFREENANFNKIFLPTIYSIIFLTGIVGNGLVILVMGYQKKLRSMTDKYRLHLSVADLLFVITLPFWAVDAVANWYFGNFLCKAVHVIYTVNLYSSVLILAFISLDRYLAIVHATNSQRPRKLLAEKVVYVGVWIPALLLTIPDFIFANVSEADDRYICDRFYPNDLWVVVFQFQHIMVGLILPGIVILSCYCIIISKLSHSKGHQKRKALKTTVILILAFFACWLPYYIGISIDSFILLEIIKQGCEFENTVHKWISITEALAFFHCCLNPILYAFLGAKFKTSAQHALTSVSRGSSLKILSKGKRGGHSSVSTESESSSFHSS

Row | Structure (SMILES) | Pharmacology | Ca^2+ Assay | compound's (Ca)i response in presence of CXCR4 antagonist AMD3100 | own (Ca)i response (agonist effect) | also measured
1 | Cc1ncsc1CCn1nc(C(=O)NC2CC2)c2c1CCN(Cc1ccc3c(c1)OCO3)C2 [NUCC-0000387] | Agonist |  |  |  | 
2 | COC(=O)c1c(NC(=O)C2CCOC2)c2cc(NCC(C)Cc3ccc4c(c3)OCO4)cnc2n1CCCc1ccccc1 (stereo not drawn) [NUCC-0000392] | Antagonist |  |  |  | IC50: 1 µM; effect on SDF-1-induced (Ca)i response: antagonized the effects of SDF-1
3 | COC(=O)c1c(NC(=O)[C@H]2CCOC2)c2cc(NC[C@H](C)Cc3ccc4c(c3)OCO4)cnc2n1CCCc1ccccc1 [NUCC-0000392] |  | Antagonist |  |  | 
4 | COCCn1c(C(=O)OC)c(NC(=O)CCc2ccccc2)c2cc(NCCC(C)c3ccccc3)cnc21 (stereo not drawn) [NUCC-0000393] | Agonist |  |  |  | 
5 | COCCNC(=O)c1nn(CCC(C)C)c2c1CN(Cc1ncc[nH]1)CC2 [NUCC-0000398, 5-((1H-imidazol-2-yl)methyl)-1-isopentyl-N-(2-methoxyethyl)-4,5,6,7-tetrahydro-1H-pyrazolo(4,3-c)pyridine-3-carboxamide] | Agonist | Agonist |  |  | compound's (Ca)i response in presence of CXCR4 antagonist AMD3100 (listed as NUCC-398): completely inhibited; also recorded: inhibited by AMD3100; own (Ca)i response (agonist effect) (listed as NUCC-398): produced their own response; also recorded: robust agonist activity; also recorded: Agonist effects
6 | CCCn1nc(C(=O)N2CCCCC2)c2c1CCC(NCCc1cccnc1)C2 (stereo not drawn) [NUCC-0054118, Piperidin-1-yl(1-propyl-5-((2-(pyridin-3-yl)ethyl)amino)-4,5,6,7-tetrahydro-1H-indazol-3-yl)methanone] | Agonist | Antagonist | inhibited by AMD3100 | robust agonist activity | 
7 | CCCn1nc(C(=O)N2CCCCC2)c2c1CCC(NCCCN1CCCC1=O)C2 (stereo not drawn) [NUCC-0054120, 1-(3-((3-(Piperidine-1-carbonyl)-1-propyl-4,5,6,7-tetrahydro-1H-indazol-5-yl)amino)propyl)pyrrolidin-2-one] | Antagonist | Agonist |  |  | IC50: 1 µM; effect on SDF-1-induced (Ca)i response: antagonized the effects of SDF-1
8 | CCCn1nc(C(=O)N2CCCCC2)c2c1CCC(NCCCN1CCOCC1)C2 (stereo not drawn) [NUCC-0054127] | Agonist | Agonist | inhibited by AMD3100 | robust agonist activity | 
9 | Cn1nc(C(=O)N2CCCCC2)c2c1CCC(NCc1ccc(F)cc1)C2 (stereo not drawn) [NUCC-0176290] | Antagonist |  |  | robust calcium response | effect on SDF-1-induced (Ca)i response: blocks the effect of SDF-1
10 | CCCn1nc(C(=O)N(C)Cc2ccccc2)c2c1CCC(NCCCN1CCOCC1)C2 (stereo not drawn) [NUCC-0176301] | Agonist |  | prevented calcium signaling | robust calcium response | 
11 | CCCn1nc(C(=O)N(C)Cc2ccccc2)c2c1CCC(NCc1ccc(F)cc1)C2 (stereo not drawn) [NUCC-0176303] | Agonist |  |  | robust calcium response | 
12 | CCCn1nc(C(=O)N2CCCCC2)c2c1CCC(NCc1ccc(F)cc1)C2 (stereo not drawn) [NUCC-0176306] | Agonist |  | prevented calcium signaling | robust calcium response | 
13 | CCCn1nc(C(=O)N(C)C)c2c1CCC(NCCc1cccnc1)C2 (stereo not drawn) [NUCC-0176308] | Agonist |  | prevented calcium signaling | robust calcium response | 

Source: patent US10435375B2, “CXCR4 chemokine receptor modulators” (NORTHWESTERN UNIVERSITY, priority 2015, dated 2019)
